Read-outs that look alike come from different tables or passages of the source. Values belong to the compound of their own block, whether it stands above or below them.
Assays:
full length USP7 = full length USP7 (Homo sapiens (Human), UniProt Q93009); assay: Ub-AMC enzymatic assay with full-length USP7; assay type: biochemical; settings: for IC50: 6 hours pre-incubation, Ub-AMC
Procedure: Both constructs were overexpressed in E. coli BL21 (DE3). Cells were grown at 37° C. to an OD of 0.9, cooled to 16° C., induced with 500 μM isopropyl-1-thio-D-galactopyranoside (IPTG), incubated overnight at 16° C., collected by centrifugation, and stored at −80° C. Cell pellets were sonicated in lysis buffer (25 mM Tris pH 8, 1 M NaCl, and 10 mM BME) supplemented with 10 μg/ml phenylmethanesulfonylfluoride (PMSF) and the resulting lysate was centrifuged at 30,000×g for 40 min. Ni-NTA beads (Qiagen) were mixed with lysate supernatant for 2 hours, and washed with lysis buffer supplemented with 25 mM imidazole. The bound protein was eluted with lysis buffer supplemented with 300 mM imidazole. The sample was then concentrated to 1 ml (30 kDa concentrator; Amicon Ultra, Millipore), and run on a Superdex 200 (GE healthcare) in buffer containing 25 mM HEPES pH 7.5, 200 mM NaCl, and 1 mM DTT. Fractions were pooled, concentrated and frozen at −80° C.
Full length USP7 was tested for its activity in Ubiquitin-AMC assay in presence or absence of inhibitors. USP7 (5 nM) was pre-incubated for 6 hours at room temperature with different concentrations of inhibitors or DMSO as a control in 50 mM HEPES pH 7.5, 0.5 mM EDTA, 11 μM ovalbumin, and 5 mM DTT. Ubiquitin-AMC (Boston Biochem) was then added to a final concentration of 500 nM. The initial rate of the reaction was measured by collecting fluorescence data at one minute intervals over 30-minute period using a Clariostar fluorescence plate reader at excitation and emission wavelength of 345 and 445 nm respectively. The calculated initial rate values were plotted against inhibitor concentrations to determine IC50s. All the experimental data were plotted using Prism GraphPad. All assays for each compound were performed at least twice for each compound.

[1] = system: Ewing sarcoma cell lines, TP53 WT and mutant; assay: Cell proliferation (CellTiter-Glo), panel of Ewing sarcoma cell lines; assay type: cell-based; settings: same set of cell lines
Procedure: Cells were plated in 384-well culture-treated plates and allowed to settle overnight. After drug treatment and appropriate incubation time, cell viability was assessed using the CellTiter-Glo Luminescent Cell Viability Assay (Promega). Luminescence was read on a Fluostar Omega Reader (BMG Labtech).

MCF7 cells [2] = assay: Drug synergy analysis (Chou-Talalay combination index), MCF7; assay type: cell-based
Excerpt: (§1) Loewe Additivity is a dose-effect approach that estimates the effect of combining two drugs based on the concentration of each individual drug that produces the same quantitative effect (Goldoni and Johansson, 2007). […] They introduced the combination index (CI) scores to estimate the interaction between the two drugs. If CI<1, the drugs have a synergistic effect, and if CI>1, the drugs have an antagonistic effect. CI=1 means the drugs have an additive effect.

TC32 cells = assay: Drug synergy analysis (Chou-Talalay combination index), TC32; assay type: cell-based
Excerpt: as §1, with “drugs.” for “drugs. If CI<1, the drugs have a synergistic effect, and if CI>1, the drugs have an antagonistic effect. CI=1 means the drugs have an additive effect.”

MCF7 cells [3] = assay: Transcriptome profiling, 3' Digital Gene Expression RNA-seq; assay type: cell-based; settings: 24 hours, low or high doses
Excerpt: Overall, transcripts were detected for 7000-10,000 genes (7276 genes detected across all conditions).
The same report had also identified a set of dimerization partner, Retinoblastoma-like, E2F and multi-vulval class B (DREAM) complex target genes by combining p53 repression data (generated in part with Nutlin-3A-treated MCF7 cells) with cell cycle expression and DREAM component binding.

[4] = system: MDM2-p53 signaling axis in MCF7 cells; assay: Whole cell lysate Western blots of MCF7 cells (MDM2-p53 signaling axis); assay type: cell-based; settings: wild-type TP53
MCF7 cells [5] = assay: Cell cycle analysis by propidium iodide staining; assay type: cell-based; settings: 1 μM, 24 hours
Procedure: For propidium iodide (PI) staining, treated cells (˜1 million per condition) were washed with cold PBS, then fixed in 80% ethanol overnight at −20° C. After fixing, cells were pelleted, washed with PBS, and reconstituted in 500 μL FxCycle PI/RNAse A staining solution (Thermo Fisher). Cells were stored overnight at 4° C. and analyzed using a BD Fortessa flow cytometer.

USP7 catalytic domain = USP7 catalytic domain (Homo sapiens (Human), UniProt Q93009); assay: MS labeling of purified USP7 catalytic domain (intact MS, CE-MS); assay type: binding; settings: 15 minutes incubation
Sequence of USP7 catalytic domain (Q93009 208-560): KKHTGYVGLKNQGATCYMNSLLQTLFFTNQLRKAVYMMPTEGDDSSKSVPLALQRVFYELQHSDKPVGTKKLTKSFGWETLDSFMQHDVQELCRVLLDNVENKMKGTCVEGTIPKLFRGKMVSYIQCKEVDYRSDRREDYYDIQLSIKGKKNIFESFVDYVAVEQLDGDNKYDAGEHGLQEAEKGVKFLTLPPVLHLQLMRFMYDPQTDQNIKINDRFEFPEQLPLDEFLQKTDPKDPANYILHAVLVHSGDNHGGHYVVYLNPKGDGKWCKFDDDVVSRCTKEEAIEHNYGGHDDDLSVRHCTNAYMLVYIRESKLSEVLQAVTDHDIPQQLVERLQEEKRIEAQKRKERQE
Procedure: Purified USP7 catalytic domain was diluted to 20 μM in 10 μL labeling buffer (20 mM HEPES pH 7.5, 150 mM NaCl, 1 mM TCEP) and incubated for the indicated times with 50 μM (2.5×) compound. After incubation, samples were flash frozen in liquid nitrogen and stored at −80° C. until analysis.
Intact mass analysis was performed by injecting 5 μg USP7 catalytic domain onto a self-packed reversed phase column ( 1/32″ O.D.×500 um I.D., 5 cm of POROS 10R2 resin). After desalting, protein was eluted with an HPLC gradient (0-100% B in 4 minutes, A=0.2M acetic acid in water, B=0.2 M acetic acid in acetonitrile, flow rate ˜30 μL/min) into an LTQ ion trap mass spectrometer (ThermoFisher Scientific, San Jose, CA). Mass spectra were deconvoluted using MagTran1.03b2 software. Zhang, Z. & Marshall, A. G. A universal algorithm for fast and automated charge state deconvolution of electrospray mass-to-charge ratio spectra. J. Am. Soc. Mass Spectrom. 9, 225-233 (1998).
To identify sites of covalent modification, treated protein was reduced (10 mM dithiothreitol), alkylated (22.5 mM iodoacetamide), and digested with trypsin overnight at 37° C. Peptides were desalted using SP3 (Hughes, C. S. et al. Ultrasensitive proteome analysis using paramagnetic bead technology. Mol. Syst. Biol. 10, 757-757 (2014)), dried by vacuum centrifugation, and reconstituted in 1% formic acid/50% acetonitrile with 100 mM ammonium acetate. Peptides were then analyzed by CE-MS using a ZipChip CE system and autosampler (908 Devices, Boston, MA) interfaced to a QExactive HF mass spectrometer (ThermoFisher Scientific, San Jose, CA). Peptide solution was loaded for 30 seconds, and the mass spectrometer was operated in data dependent mode and subjected the 5 most abundant ions in each MS scan (60 k resolution, 3E6 target, lock mass enabled) to MS/MS (15 k resolution, 1E5 target, 100 ms max inject time). Dynamic exclusion was enabled with a repeat count of 1 and an exclusion time of 6 seconds. […]

[6] = Table 3, read-out: IC50 (μM), USP7 activity in USP7 assay
[7] = Table 1, read-out: IC50 (nM), USP7 activity in USP7 assay

Sequence of full length USP7 (Q93009 whole entry): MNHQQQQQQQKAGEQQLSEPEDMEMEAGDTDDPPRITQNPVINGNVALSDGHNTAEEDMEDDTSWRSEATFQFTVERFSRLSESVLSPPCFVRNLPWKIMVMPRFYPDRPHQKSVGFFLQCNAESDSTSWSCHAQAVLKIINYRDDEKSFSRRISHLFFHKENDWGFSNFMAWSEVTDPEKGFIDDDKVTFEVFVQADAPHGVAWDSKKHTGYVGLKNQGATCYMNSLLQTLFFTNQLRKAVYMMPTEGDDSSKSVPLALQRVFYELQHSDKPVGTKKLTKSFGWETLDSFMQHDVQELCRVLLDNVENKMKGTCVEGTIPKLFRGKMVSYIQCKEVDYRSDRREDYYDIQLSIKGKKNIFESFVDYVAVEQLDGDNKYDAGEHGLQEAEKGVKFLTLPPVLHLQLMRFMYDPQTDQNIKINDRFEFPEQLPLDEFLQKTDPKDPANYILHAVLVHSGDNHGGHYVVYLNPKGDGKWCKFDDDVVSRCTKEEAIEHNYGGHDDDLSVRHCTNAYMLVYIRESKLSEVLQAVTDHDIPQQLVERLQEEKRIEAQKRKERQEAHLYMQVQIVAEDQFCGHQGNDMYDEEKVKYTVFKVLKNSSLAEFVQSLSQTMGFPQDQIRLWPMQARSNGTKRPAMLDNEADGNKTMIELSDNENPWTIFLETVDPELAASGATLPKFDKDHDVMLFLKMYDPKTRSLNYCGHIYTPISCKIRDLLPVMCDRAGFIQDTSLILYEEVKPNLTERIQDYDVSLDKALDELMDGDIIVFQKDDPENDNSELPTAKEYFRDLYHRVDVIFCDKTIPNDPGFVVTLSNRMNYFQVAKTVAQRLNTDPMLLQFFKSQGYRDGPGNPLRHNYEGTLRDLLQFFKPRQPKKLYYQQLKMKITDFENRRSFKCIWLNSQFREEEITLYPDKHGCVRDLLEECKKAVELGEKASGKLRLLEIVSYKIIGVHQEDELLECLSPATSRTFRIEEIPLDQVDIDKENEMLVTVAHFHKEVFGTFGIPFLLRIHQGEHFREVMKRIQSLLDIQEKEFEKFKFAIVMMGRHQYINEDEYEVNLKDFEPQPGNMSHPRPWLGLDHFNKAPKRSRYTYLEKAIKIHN

SMILES: O=C(CCN1CCOCC1)Nc1ccc2c(=O)n(CC3(O)CCN(C(=O)C(CCCNC(=O)c4ccc5c(Cl)c6c(nc5c4)CCCC6)Cc4ccc(F)c(C(F)(F)F)c4)CC3)cnc2c1 (stereo not shown)
IC50 (full length USP7; [6]): 0.02 to 0.1 µM

SMILES: CN1CCN(c2cccc3c(=O)n(CC4(O)CCN(C(=O)[C@@H](CCCNC(=O)c5ccc6c(Cl)c7c(nc6c5)CCCC7)Cc5ccccc5)CC4)cnc23)CC1
IC50 (full length USP7; [6]): 0.02 to 0.1 µM

SMILES: O=C(NCCC[C@@H](Cc1ccccc1)C(=O)N1CCC(O)(Cn2cnc3c(N4CCOCC4)cccc3c2=O)CC1)c1ccc2c(Cl)c3c(nc2c1)CCCC3
IC50 (full length USP7; [6]): 0.02 to 0.1 µM

SMILES: CCc1c(-c2ccc3[nH]ncc3c2)cnc(N)c1-c1ccc(O)cc1 [GNE6640]
specificity for TP53-WT expressing cells [1]: little to no specificity for TP53-WT expressing cells

SMILES: Cc1ncc(Cl)cc1NCc1ccc(C(=O)N[C@@H](CC2CCCC2)C(=O)NC2CC2)s1 [GSK2830371]
interaction in combination with compound 6 (MCF7 cells [2]): mixed synergy and antagonism
combination index with compound 6 (TC32 cells): < 0.6

SMILES: COc1cc(C(=O)O)ccc1NC(=O)[C@@H]1N[C@@H](CC(C)(C)C)[C@](C#N)(c2ccc(Cl)cc2F)[C@H]1c1cccc(Cl)c1F [RG7388]
combination index with compound 6 (TC32 cells): < 0.6

SMILES: C[C@@H]1NC(=O)N[C@@H]1CCCCCC(=O)NCCOCCOCCOCCC(=O)N1CCN(CC(=O)Nc2ccc3c(=O)n(CC4(O)CCN(C(=O)CCCCNC(=O)c5ccc6c(Cl)c7c(nc6c5)CCCC7)CC4)cnc3c2)CC1 [compound 6-DTB, 9-chloro-N-(5-(4-hydroxy-4-((7-(2-(4-(19-((4R,5S)-5-methyl-2-oxoimidazolidin-4-yl)-14-oxo-4,7,10-trioxa-13-azanonadecanoyl)piperazin-1-yl)acetamido)-4-oxoquinazolin-3(4H)-yl)methyl)piperidin-1-yl)-5-oxopentyl)-5,6,7,8-tetrahydroacridine-3-carboxamide]
USP7 inhibitory activity (full length USP7; purified enzyme and native USP7): retained USP7 inhibitory activity

SMILES: CN1CCN(CCC(=O)Nc2ccc3c(=O)n(CC4(O)CCN(C(=O)[C@H](CCCNC(=O)c5ccc6c(Cl)c7c(nc6c5)CCCC7)Cc5ccccc5)CC4)cnc3c2)CC1 [compound 7, (R)-N-(4-benzyl-5-(4-hydroxy-4-((7-(3-(4-methylpiperazin-1-yl)propanamido)-4-oxoquinazolin-3(4H)-yl)methyl)piperidin-1-yl)-5-oxopentyl)-9-chloro-5,6,7,8-tetrahydroacridine-3-carboxamide]
transcriptional profile (MCF7 cells [3]): highly correlated with the vehicle (DMSO)-treated control cells
MDM2 protein level [4]: did not exert any of the same effects
cell cycle effect (MCF7 cells [5]): did not exert any of the same effects

SMILES: CN1CCN(CCC(=O)Nc2ccc3c(=O)n(CC4(O)CCN(C(=O)C(CCCNC(=O)c5ccc6cc7c(nc6c5)CCCC7)Cc5ccccc5)CC4)cnc3c2)CC1 (stereo not shown) [compound 40, N-(4-benzyl-5-(4-hydroxy-4-((7-(3-(4-methylpiperazin-1-yl)propanamido)-4-oxoquinazolin-3(4H)-yl)methyl)piperidin-1-yl)-5-oxopentyl)-5,6,7,8-tetrahydroacridine-3-carboxamide]
labeling of USP7 catalytic domain by MS (USP7 catalytic domain): unable to label the USP7 catalytic domain
IC50 against USP7 (range in words) (full length USP7; full-length USP7, Ub-AMC): nanomolar range

SMILES: COc1cccc2c1C(=O)c1c(O)c3c(c(O)c1C2=O)C[C@@](O)(C(=O)CO)C[C@@H]3O[C@H]1C[C@H](N)[C@H](O)[C@H](C)O1 [doxorubicin]
interaction in combination with compound 6 (MCF7 cells [2]): mixed synergy and antagonism
combination index with compound 6 (TC32 cells): < 0.6

SMILES: CN1CCN(CCC(=O)Nc2ccc3c(=O)n(CC4(O)CCN(C(=O)C(CCCNC(=O)c5ccc6cc7c(nc6c5)CCCC7)Cc5ccccc5)CC4)cnc3c2)CC1 (stereo not shown) [drawing 180]
IC50 (full length USP7; Table 2, read-out: IC50 (μM), USP7 activity in USP7 assay): 0.1 to 1 µM

SMILES: COc1cc([C@@H]2c3cc4c(cc3[C@@H](O[C@@H]3O[C@@H]5CO[C@@H](C)O[C@H]5[C@H](O)[C@H]3O)[C@H]3COC(=O)[C@H]23)OCO4)cc(OC)c1O [etoposide]
interaction in combination with compound 6 (MCF7 cells [2]): mixed synergy and antagonism

The remaining lines, values ahead:

IC50 (full length USP7; [6]): 0.1 to 1 µM
SMILES: O=C(CCN1CCOCC1)Nc1ccc2c(=O)n(CC3(O)CCN(C(=O)[C@H](Cc4ccccc4)NC(=O)COc4ccc5c(Cl)c6c(nc5c4)CCCC6)CC3)cnc2c1

IC50 (full length USP7; [6]): 0.02 to 0.1 µM
SMILES: O=C(CCN1CCOCC1)Nc1ccc2c(=O)n(CC3(O)CCN(C(=O)C(CCCNC(=O)c4ccc5c(Cl)c6c(nc5c4)CCCC6)Cc4ccc(F)cc4F)CC3)cnc2c1 (stereo not shown)

IC50 (full length USP7; [7]): 0.02 to 0.1 µM
SMILES: CN1CCN(CCC(=O)Nc2ccc3c(=O)n(CC4(O)CCN(C(=O)CCCCNC(=O)c5ccc6c(Cl)c7c(nc6c5)CCCC7)CC4)cnc3c2)CC1 [drawing 141]

IC50 (full length USP7; [7]): < 0.02 µM
SMILES: CN1CCN(CCC(=O)Nc2ccc3c(=O)n(CC4(O)CCN(C(=O)[C@@H](CCCNC(=O)c5ccc6c(Cl)c7c(nc6c5)CCCC7)Cc5ccccc5)CC4)cnc3c2)CC1 [drawing 146]

IC50 (full length USP7; [7]): 0.1 to 1 µM
SMILES: CN1CCN(CCC(=O)Nc2ccc3c(=O)n(CC4(O)CCN(C(=O)[C@H](CCCNC(=O)c5ccc6c(Cl)c7c(nc6c5)CCCC7)Cc5ccccc5)CC4)cnc3c2)CC1 [drawing 147]

Reference: patent US12503453B2, “USP7 inhibition” (Dana-Farber Cancer Institute, Inc., priority 2018, dated 2025)
